Results on 20 compounds are retold here after patent US20250282768A1 (Janssen Pharmaceutica NV, priority 2022, published 2025).

Bounds are passed on as bounds.

The assay concerns p-IKKa levels in L363 (NIK translocated multiple myeloma) cells. Description: Assay 2: Effect of compounds on p-IKKa levels in L363 (NIK translocated multiple myeloma) cells. Type of assay: cell-based. The following applies: Homo sapiens, L-363, 6 h, read-out: Assay 2 IC50 (nM), p-IKKa (Ser 176/180) in BAFF stimulated L363 cells with MG132, 6 h; average if tested more than once. Put shortly:
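Read-out is p-IKKa Ser176/180 by AlphaLISA SureFire in lysates. Cells were BAFF-primed (250 ng/ml) overnight or left unstimulated, then exposed 6 h at 37 °C to compound with MG132 (10 μM), 0.3% DMSO. IC50 from sigmoidal curve fit, normalized between stimulated and unstimulated controls.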
As for `CCn1cc(Nc2nccc(-c3cccc(-c4cc([C@]5(O)CCN(C)C5=O)no4)n3)n2)cn1` [Example 91, (R)-3-(5-(6-(2-((1-Ethyl-1H-pyrazol-4-yl)amino)pyrimidin-4-yl)pyridin-2-yl)isoxazol-3-yl)-3-hydroxy-1-methylpyrrolidin-2-one], the IC50 was under 50 nM.

For the compound `C[C@@H]1C[C@@](O)(c2cc(-c3cccc(-c4ccnc(Nc5ccn(C)n5)n4)n3)no2)C(=O)N1C` [Example 92, (3R,5R)-3-Hydroxy-1,5-dimethyl-3-(3-(6-(2-((1-methyl-1H-pyrazol-3-yl)amino)pyrimidin-4-yl)pyridin-2-yl)isoxazol-5-yl)pyrrolidin-2-one], the IC50 was 50 to 500 nM.

For `CN1C(=O)[C@](O)(c2cc(-c3cccc(-c4ccnc(Nc5ccn(C)n5)n4)n3)no2)[C@H]2C[C@H]21` [Example 93, (1R,4R,5S)-4-Hydroxy-2-methyl-4-(3-(6-(2-((1-methyl-1H-pyrazol-3-yl)amino)pyrimidin-4-yl)pyridin-2-yl)isoxazol-5-yl)-2-azabicyclo[3.1.0]hexan-3-one], the IC50 was in the range of 50 to 500 nM.

As for `CN1CC(F)(F)[C@@](O)(c2cc(-c3cncc(-c4ccnc(Nc5ccn(C)n5)n4)n3)no2)C1=O` [Example 94, (R)-4,4-Difluoro-3-hydroxy-1-methyl-3-(3-(6-(2-((1-methyl-1H-pyrazol-3-yl)amino)pyrimidin-4-yl)pyrazin-2-yl)isoxazol-5-yl)pyrrolidin-2-one], the IC50 lay in the range of 50 to 500 nM.

Take `CN1CC[C@@](O)(c2cc(-c3cncc(-c4ccnc(Nc5ccn(C)n5)n4)n3)no2)C1=O` [Example 95, (R)-3-Hydroxy-1-methyl-3-(3-(6-(2-((1-methyl-1H-pyrazol-3-yl)amino)pyrimidin-4-yl)pyrazin-2-yl)isoxazol-5-yl)pyrrolidin-2-one]: the IC50 fell in the range of 50 to 500 nM.

With `CN1CC[C@@](O)(c2cnn(-c3cccc(-c4ccnc(Nc5cn(CC(F)F)nc5OC5CC5)n4)n3)c2)C1=O` [Example 97, (R)-3-(1-(6-(2-((3-Cyclopropoxy-1-(2,2-difluoroethyl)-1H-pyrazol-4-yl)amino)pyrimidin-4-yl)pyridin-2-yl)-1H-pyrazol-4-yl)-3-hydroxy-1-methylpyrrolidin-2-one], the IC50 was 50 to 500 nM.

Turning to `CN1CC[C@@](O)(c2cnn(-c3cccc(-c4ccnc(Nc5cnn6ccccc56)n4)n3)c2)C1=O` [Example 98, (R)-3-Hydroxy-1-methyl-3-(1-(6-(2-(pyrazolo[1,5-a]pyridin-3-ylamino)pyrimidin-4-yl)pyridin-2-yl)-1H-pyrazol-4-yl)pyrrolidin-2-one], the IC50 was 50 to 500 nM.

Consider `Cc1cc(-c2cc([C@]3(O)CCN(C)C3=O)on2)nc(-c2ccnc(Nc3cnn(C)c3)n2)c1` [Example 99, (R)-3-Hydroxy-1-methyl-3-(3-(4-methyl-6-(2-((1-methyl-1H-pyrazol-4-yl)amino)pyrimidin-4-yl)pyridin-2-yl)isoxazol-5-yl)pyrrolidin-2-one], for which the IC50 was under 50 nM.

Consider `Cc1cc(-c2cc([C@]3(O)CCN(C)C3=O)on2)nc(-c2ccnc(Nc3ccn(C)n3)n2)c1` [Example 100, (R)-3-Hydroxy-1-methyl-3-(3-(4-methyl-6-(2-((1-methyl-1H-pyrazol-3-yl)amino)pyrimidin-4-yl)pyridin-2-yl)isoxazol-5-yl)pyrrolidin-2-one], for which the IC50 is under 50 nM.

As for `CN1CC[C@@](O)(c2cc(-c3cccc(-c4cc(Cl)nc(Nc5ccn(C)n5)n4)n3)no2)C1=O` [Example 101, (R)-3-(3-(6-(6-Chloro-2-((1-methyl-1H-pyrazol-3-yl)amino)pyrimidin-4-yl)pyridin-2-yl)isoxazol-5-yl)-3-hydroxy-1-methylpyrrolidin-2-one], the IC50 is over 500 nM.

As to `CN1CC[C@@](O)(c2nnc(-c3cccc(-c4ccnc(Nc5cnn(C)c5Cl)n4)n3)s2)C1=O` [Example 102, (S)-3-(5-(6-(2-((5-Chloro-1-methyl-1H-pyrazol-4-yl)amino)pyrimidin-4-yl)pyridin-2-yl)-1,3,4-thiadiazol-2-yl)-3-hydroxy-1-methylpyrrolidin-2-one], the IC50 was 50 to 500 nM.

As for `CN1CC[C@](O)(c2nnc(-c3cccc(-c4ccnc(Nc5cnn(C)c5Cl)n4)n3)s2)C1=O` [Example 103, (R)-3-(5-(6-(2-((5-chloro-1-methyl-1H-pyrazol-4-yl)amino)pyrimidin-4-yl)pyridin-2-yl)-1,3,4-thiadiazol-2-yl)-3-hydroxy-1-methylpyrrolidin-2-one], the IC50 was over 500 nM.

Consider `CN1CC(F)(F)[C@@](O)(c2cn(-c3cccc(-c4ccnc(Nc5cnn(C)c5Cl)n4)n3)nn2)C1=O` [Example 109, (R)-3-(1-(6-(2-((5-Chloro-1-methyl-1H-pyrazol-4-yl)amino)pyrimidin-4-yl)pyridin-2-yl)-1H-1,2,3-triazol-4-yl)-4,4-difluoro-3-hydroxy-1-methylpyrrolidin-2-one], for which the IC50 was under 50 nM.

Take `CN1CC(F)(F)[C@@](O)(c2cc(-c3cccc(-c4ccnc(Nc5cnn6c5COCC6)n4)n3)no2)C1=O` [Example 110, (R)-3-(3-(6-(2-((6,7-Dihydro-4H-pyrazolo[5,1-c][1,4]oxazin-3-yl)amino)pyrimidin-4-yl)pyridin-2-yl)isoxazol-5-yl)-4,4-difluoro-3-hydroxy-1-methylpyrrolidin-2-one]: the IC50 is under 50 nM.

On to `Cc1ncccc1Nc1nccc(-c2cccc(-c3cc([C@]4(O)CCN(C)C4=O)no3)n2)n1` [Example 111, (R)-3-Hydroxy-1-methyl-3-(5-(6-(2-((2-methylpyridin-3-yl)amino)pyrimidin-4-yl)pyridin-2-yl)isoxazol-3-yl)pyrrolidin-2-one], for which the IC50 was under 50 nM.

For `COc1ncc(Nc2nccc(-c3cccc(-c4cc([C@]5(O)CCN(C)C5=O)on4)n3)n2)cn1` [Example 112, (R)-3-Hydroxy-3-(3-(6-(2-((2-methoxypyrimidin-5-yl)amino)pyrimidin-4-yl)pyridin-2-yl)isoxazol-5-yl)-1-methylpyrrolidin-2-one], the IC50 lay in the range of 50 to 500 nM.

Take `COc1nccc(Nc2nccc(-c3cccc(-c4cc([C@]5(O)CCN(C)C5=O)on4)n3)n2)n1` [Example 113, (R)-3-Hydroxy-3-(3-(6-(2-((2-methoxypyrimidin-4-yl)amino)pyrimidin-4-yl)pyridin-2-yl)isoxazol-5-yl)-1-methylpyrrolidin-2-one]: the IC50 is under 50 nM.

Turning to `Cc1cc(Nc2nccc(-c3cccc(-n4cc([C@@]5(O)C(=O)N(C)CC5(F)F)nn4)n3)n2)ccn1` [Example 117, (R)-4,4-Difluoro-3-hydroxy-1-methyl-3-(1-(6-(2-((2-methylpyridin-4-yl)amino)pyrimidin-4-yl)pyridin-2-yl)-1H-1,2,3-triazol-4-yl)pyrrolidin-2-one], the IC50 is under 50 nM.

On to `CN1CC[C@@](O)(c2cn(-c3cccc(-c4ccnc(Nc5cnn6ccccc56)n4)n3)nn2)C1=O` [Example 121, (R)-3-Hydroxy-1-methyl-3-(1-(6-(2-(pyrazolo[1,5-a]pyridin-3-ylamino)pyrimidin-4-yl)pyridin-2-yl)-1H-1,2,3-triazol-4-yl)pyrrolidin-2-one], for which the IC50 was under 50 nM.

As to `COc1nn(CC(F)F)cc1Nc1nccc(-c2cccc(-n3cc([C@]4(O)CCN(C)C4=O)nn3)n2)n1` [Example 122, (R)-3-(1-(6-(2-((1-(2,2-Difluoroethyl)-3-methoxy-1H-pyrazol-4-yl)amino)pyrimidin-4-yl)pyridin-2-yl)-1H-1,2,3-triazol-4-yl)-3-hydroxy-1-methylpyrrolidin-2-one], the IC50 was under 50 nM.
